Measured values: patent US20240158412A1 (Faxian Therapeutics, LLC, priority 2021, published 2024)

The molecules below were run against USP7 (Homo sapiens, UniProt Q93009) (assay: biochemical).
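Note: fluorescence intensity readout of USP7 enzymatic activity, reaction incubated 90 min at room temperature.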

Sequence of USP7 (Q93009 whole entry): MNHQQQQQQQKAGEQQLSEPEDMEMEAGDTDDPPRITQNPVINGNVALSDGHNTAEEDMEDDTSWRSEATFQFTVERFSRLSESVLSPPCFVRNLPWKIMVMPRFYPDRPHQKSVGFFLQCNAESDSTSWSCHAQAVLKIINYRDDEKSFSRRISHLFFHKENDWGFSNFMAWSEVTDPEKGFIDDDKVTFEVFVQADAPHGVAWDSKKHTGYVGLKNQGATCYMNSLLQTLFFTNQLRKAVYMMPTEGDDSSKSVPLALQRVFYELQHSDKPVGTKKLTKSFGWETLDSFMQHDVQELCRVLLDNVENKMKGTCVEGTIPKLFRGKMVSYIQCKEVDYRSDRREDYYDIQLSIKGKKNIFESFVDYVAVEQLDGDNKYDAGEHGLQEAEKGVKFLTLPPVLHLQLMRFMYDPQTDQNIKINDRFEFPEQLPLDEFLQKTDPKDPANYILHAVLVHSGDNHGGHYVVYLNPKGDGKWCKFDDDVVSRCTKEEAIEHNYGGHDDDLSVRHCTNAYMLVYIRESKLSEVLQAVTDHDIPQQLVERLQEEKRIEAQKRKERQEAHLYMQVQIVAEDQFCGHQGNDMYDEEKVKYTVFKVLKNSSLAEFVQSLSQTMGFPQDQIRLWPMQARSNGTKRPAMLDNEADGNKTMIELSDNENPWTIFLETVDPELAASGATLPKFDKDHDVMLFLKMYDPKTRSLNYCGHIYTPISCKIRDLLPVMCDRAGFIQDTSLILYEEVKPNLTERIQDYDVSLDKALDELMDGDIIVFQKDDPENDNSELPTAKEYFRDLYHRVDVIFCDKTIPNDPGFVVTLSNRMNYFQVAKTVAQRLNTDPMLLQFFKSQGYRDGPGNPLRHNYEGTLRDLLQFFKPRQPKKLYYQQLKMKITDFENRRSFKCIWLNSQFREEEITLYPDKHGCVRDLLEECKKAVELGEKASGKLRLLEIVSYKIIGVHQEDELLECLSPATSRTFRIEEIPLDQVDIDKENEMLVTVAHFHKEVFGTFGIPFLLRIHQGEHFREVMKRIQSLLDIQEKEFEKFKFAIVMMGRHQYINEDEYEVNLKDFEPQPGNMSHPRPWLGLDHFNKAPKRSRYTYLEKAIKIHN

Row | SMILES | IC50 [nM]
1 | O=c1cc(CC(F)(F)F)cnn1Cc1cc2nccc(-c3cc(Cl)cc4c3N([C@@H]3CNC5(CCC5)C3)CCC4)c2s1 [Example 154, (S)-2-((7-(6-chloro-1-(5-azaspiro[3.4]octan-7-yl)-1,2,3,4-tetrahydroquinolin-8-yl)thieno[3,2-b]pyridin-2-yl)methyl)-5-(2,2,2-trifluoroethyl)pyridazin-3(2H)-one] | < 10
2 | CC1(C)C2C(=O)N(Cc3cc4nccc(-c5cc(Cl)cc6c5N([C@@H]5CNC7(CCC7)C5)CCO6)c4s3)C(=O)C21 (stereo partly drawn) [Example 172, 3-((7-(7-chloro-4-((S)-5-azaspiro[3.4]octan-7-yl)-3,4-dihydro-2H-benzo[b][1,4]oxazin-5-yl)thieno[3,2-b]pyridin-2-yl)methyl)-6,6-dimethyl-3-azabicyclo[3.1.0]hexane-2,4-dione] | 10 to 100
3 | N#Cc1cc2c(c(-c3ccnc4cc(CN5C(=O)CCC5=O)sc34)c1)N(C1CNC1)CCC2 [Example 32, 1-(azetidin-3-yl)-8-[2-[(2,5-dioxopyrrolidin-1-yl)methyl]thieno[3,2-b]pyridin-7-yl]-3,4-dihydro-2H-quinoline-6-carbonitrile] | 10 to 100
4 | CC(C)CN1CC[C@H](N2CCCc3cc(Cl)cc(-c4ccnc5cc(CN6C(=O)CCC6=O)sc45)c32)C1 [Example 102, (S)-1-((7-(6-chloro-1-(1-isobutylpyrrolidin-3-yl)-1,2,3,4-tetrahydroquinolin-8-yl)thieno[3,2-b]pyridin-2-yl)methyl)pyrrolidine-2,5-dione] | 10 to 100
5 | CO[C@H]1C[C@@H](N2CC[C@H](N3CCCc4cc(C#N)cc(-c5ccnc6cc(Cn7c(=O)ccn(CC(F)(F)F)c7=O)sc56)c43)C2)C1 [Example 85, 8-(2-((2,6-dioxo-3-(2,2,2-trifluoroethyl)-2,3-dihydropyrimidin-1(6H)-yl)methyl)thieno[3,2-b]pyridin-7-yl)-1-((S)-1-((1s,3R)-3-methoxycyclobutyl)pyrrolidin-3-yl)-1,2,3,4-tetrahydroquinoline-6-carbonitrile] | 10 to 100
6 | O=C1C2CC2C(=O)N1Cc1cc2nccc(-c3cc(Cl)cc4c3N(C3CNC3)CCC4)c2s1 (stereo not drawn) [Example 13, 3-((7-(1-(azetidin-3-yl)-6-chloro-1,2,3,4-tetrahydroquinolin-8-yl)thieno[3,2-b]pyridin-2-yl)methyl)-3-azabicyclo[3.1.0]hexane-2,4-dione] | 10 to 100
7 | CN1CCC(=O)N(Cc2cc3nccc(-c4cc(Cl)cc5c4N([C@H]4CCNC4)CCC5)c3s2)C1=O [Example 76, (S)-3-((7-(6-chloro-1-(pyrrolidin-3-yl)-1,2,3,4-tetrahydroquinolin-8-yl)thieno[3,2-b]pyridin-2-yl)methyl)-1-methyldihydropyrimidine-2,4(1H,3H)-dione] | < 10
8 | O=C1CCC(=O)N1C1(c2cc3nccc(-c4cc(Cl)cc5c4N([C@H]4CCNC4)CCC5)c3s2)CC1 [Example 110] | 101 to 1000
9 | N#Cc1cc2c(c(-c3ccnc4cc(CN5C(=O)CCC5=O)sc34)c1)N([C@H]1CCNC1)CCC2 [Example 82, (S)-8-(2-((2,5-dioxopyrrolidin-1-yl)methyl)thieno[3,2-b]pyridin-7-yl)-1-(pyrrolidin-3-yl)-1,2,3,4-tetrahydroquinoline-6-carbonitrile] | < 10
10 | O=C1CCC(=O)N1Cc1cc2nccc(-c3cc(Cl)cc4c3N([C@H]3CCNC3)CCC4)c2s1 [Example 57, (S)-1-((7-(6-chloro-1-(pyrrolidin-3-yl)-1,2,3,4-tetrahydroquinolin-8-yl)thieno[3,2-b]pyridin-2-yl)methyl)pyrrolidine-2,5-dione] | < 10
11 | Cc1cnn(Cc2cc3nccc(-c4cc(C#N)cc5c4N([C@@H]4CN(C)C(C)(C)C4)CCC5)c3s2)c(=O)c1 [Example 122, (S)-8-(2-((4-methyl-6-oxopyridazin-1(6H)-yl)methyl)thieno[3,2-b]pyridin-7-yl)-1-(1,5,5-trimethylpyrrolidin-3-yl)-1,2,3,4-tetrahydroquinoline-6-carbonitrile] | < 10
12 | Cn1cc(Cc2cc3nccc(-c4cc(Cl)cc5c4N([C@H]4CCNC4)CCC5)c3s2)nn1 (single isomer, unassigned) [Example 99] | 10 to 100
13 | O=c1cc(N2CCOCC2)cnn1Cc1cc2nccc(-c3cc(Cl)cc4c3N(C3CNC3)CCC4)c2s1 [Example 34] | 10 to 100
14 | N#CC1(CN2CC(N3CCCc4cc(Cl)cc(-c5ccnc6cc(CN7C(=O)CCC7=O)sc56)c43)C2)CC1 [Example 12, 1-((3-(6-chloro-8-(2-((2,5-dioxopyrrolidin-1-yl)methyl)thieno[3,2-b]pyridin-7-yl)-3,4-dihydroquinolin-1(2H)-yl)azetidin-1-yl)methyl)cyclopropanecarbonitrile] | 101 to 1000
15 | C[C@H]1CCc2cc(Cl)cc(-c3ccnc4cc(CN5C(=O)CCC5=O)sc34)c2N1[C@@H]1CCNC1 (single isomer, unassigned) [Example 44a] | 10 to 100
16 | Cc1cnn(Cc2cc3nccc(-c4cc(Cl)cc5c4N([C@@H]4CNC6(CCC6)C4)C[C@H]4C[C@@H]54)c3s2)c(=O)c1 [Example 166, 2-((7-((1aS,7bR)-6-chloro-3-((S)-5-azaspiro[3.4]octan-7-yl)-1a,2,3,7b-tetrahydro-1H-cyclopropa[c]quinolin-4-yl)thieno[3,2-b]pyridin-2-yl)methyl)-5-methylpyridazin-3(2H)-one] | < 10
17 | N#Cc1cc2c(c(-c3ncnc4cc(Cn5c(=O)ccn(CC(F)(F)F)c5=O)sc34)c1)N([C@@H]1CCNC1)CCC2 [Example 93, (R)-8-(6-((2,6-dioxo-3-(2,2,2-trifluoroethyl)-2,3-dihydropyrimidin-1(6H)-yl)methyl)thieno[3,2-d]pyrimidin-4-yl)-1-(pyrrolidin-3-yl)-1,2,3,4-tetrahydroquinoline-6-carbonitrile] | < 10
18 | O=c1ccn(CC(F)F)c(=O)n1Cc1cc2nccc(-c3cc(Cl)cc4c3N(C3CCNC3)C[C@H]3C[C@@H]43)c2s1 (stereo in doubt) [Example 115, 3-[[7-[(1aS,3R,7bR)-6-chloro-3-pyrrolidin-3-yl-1,1a,2,7b-tetrahydrocyclopropa[c]quinolin-4-yl]thieno[3,2-b]pyridin-2-yl]methyl]-1-(2,2-difluoroethyl)pyrimidine-2,4-dione] | < 10
19 | COC(=O)[C@@]1(C)C[C@@H](N2CCCc3cc(Cl)cc(-c4ccnc5cc(CN6C(=O)CCC6=O)sc45)c32)CN1 (single isomer, unassigned) [Example 201] | 101 to 1000
20 | CN1CC[C@@H](N2CCCc3cc(Cl)cc(-c4ccnc5cc(CN6C(=O)CCC6=O)sc45)c32)C1 [Example 60, (R)-1-((7-(6-chloro-1-(1-methylpyrrolidin-3-yl)-1,2,3,4-tetrahydroquinolin-8-yl)thieno[3,2-b]pyridin-2-yl)methyl)pyrrolidine-2,5-dione] | < 10
21 | CC(C)(C)c1cnn(Cc2cc3nccc(-c4cc(C#N)cc5c4N([C@@H]4CN[C@@H](CO)C4)CCC5)c3s2)c(=O)c1 [Example 190, 8-[2-[(4-tert-butyl-6-oxo-pyridazin-1-yl)methyl]thieno[3,2-b]pyridin-7-yl]-1-[(3S,5R)-5-(hydroxymethyl)pyrrolidin-3-yl]-3,4-dihydro-2H-quinoline-6-carbonitrile] | < 10
22 | O=C1CCC(=O)N1Cc1cc2nccc(-c3cc(Cl)cc4c3N(c3cn[nH]c3)C(=O)CC4)c2s1 [Example 228, 1-((7-(6-chloro-2-oxo-1-(1H-pyrazol-4-yl)-1,2,3,4-tetrahydroquinolin-8-yl)thieno[3,2-b]pyridin-2-yl)methyl)pyrrolidine-2,5-dione] | 101 to 1000
23 | O=c1ccn(CC(F)F)c(=O)n1Cc1cc2nccc(-c3cc(Cl)cc4c3N(C3CNC3)CCC4)c2s1 [Example 23, 3-[[7-[1-(azetidin-3-yl)-6-chloro-3,4-dihydro-2H-quinolin-8-yl]thieno[3,2-b]pyridin-2-yl]methyl]-1-(2,2-difluoroethyl)pyrimidine-2,4-dione] | < 10

Other lines, results leading:

Row | IC50 [nM] | SMILES
24 | > 1000 | O=C1CCC(=O)N1Cc1cc2ncnc(-c3cc(Cl)cc4c3N([C@H]3CNC5(CCC5)C3)C[C@H]3C[C@@H]43)c2s1 [Example 167b, 1-((4-((1aS,7bR)-6-chloro-3-((R)-5-azaspiro[3.4]octan-7-yl)-1a,2,3,7b-tetrahydro-1H-cyclopropa[c]quinolin-4-yl)thieno[3,2-d]pyrimidin-6-yl)methyl)pyrrolidine-2,5-dione]
25 | 10 to 100 | O=C1CCC(=O)N1Cc1cc2nccc(-c3cc(Cl)cc4c3N(C3CNC5(CCC5)C3)C(=O)CO4)c2s1 (single isomer, unassigned) [Example 173a]
26 | 10 to 100 | C[C@H](c1cc2nccc(-c3cc(C#N)cc4c3N([C@H]3CCNC3)CCC4)c2s1)N1C(=O)CCC1=O (single isomer, unassigned) [Example 112a]
27 | < 10 | C[C@H]1C[C@@H](N2CCCc3cc(Cl)cc(-c4ccnc5cc(Cn6c(=O)ccn(CC(F)(F)F)c6=O)sc45)c32)CN1 (single isomer, unassigned) [Example 95a]
28 | 10 to 100 | N#Cc1cc(-c2ccnc3cc(Cn4c(=O)ccn(CC(F)F)c4=O)sc23)c2c(c1)[C@@H]1C[C@@H]1CN2[C@@H]1CCNC1 [Example 117b, (1aS,7bR)-4-(2-((3-(2,2-difluoroethyl)-2,6-dioxo-2,3-dihydropyrimidin-1(6H)-yl)methyl)thieno[3,2-b]pyridin-7-yl)-3-((R)-pyrrolidin-3-yl)-1a,2,3,7b-tetrahydro-1H-cyclopropa[c]quinoline-6-carbonitrile]
29 | < 10 | O=C1CCC(=O)N1Cc1cc2nccc(-c3cc(Cl)cc4c3N(C3CNC5(CCC5)C3)CCO4)c2s1 (single isomer, unassigned) [Example 171b]
30 | 10 to 100 | O=C1CCC(=O)N1Cc1cc2nccc(-c3cc(Cl)cc4c3N(C3CCNC3)C[C@@H]3C[C@H]43)c2s1 (single isomer, unassigned) [Example 113c]
31 | < 10 | CC(C)(C)c1cnn(Cc2cc3nccc(-c4cc(C#N)cc5c4N([C@@H]4CN[C@@H](CO)C4)C[C@@H]4C[C@H]54)c3s2)c(=O)c1 (single isomer, unassigned) [Example 192b]
32 | 10 to 100 | O=C1CCC(=O)N1Cc1cc2nccc(-c3cc(Cl)cc4c3N([C@@H]3CCNC3)CC3CC43)c2s1 (single isomer, unassigned) [Example 113b]
33 | 10 to 100 | O=C1CCC(=O)N1Cc1cc2nccc(-c3cc(Cl)cc4c3N([C@@H]3CC[C@@]5(CCCN5)C3)CCC4)c2s1 (single isomer, unassigned) [Example 179b]
